Our source for the IC50 values is BindingDB's records for doi:10.7270/Q2H993J6 (Pcmd, 2008).

Some results are limits rather than exact numbers.

In this experiment the target is Coagulation factor XI (Homo sapiens, UniProt P03951). The experiment in a line: factor XIa inhibitor concentration-response – biochemical, hits from 1536-well screen, dose response (AID 846). Conditions: pH 7.4; 23 °C.
Sequence of Coagulation factor XI (P03951 19-387 limits assumed): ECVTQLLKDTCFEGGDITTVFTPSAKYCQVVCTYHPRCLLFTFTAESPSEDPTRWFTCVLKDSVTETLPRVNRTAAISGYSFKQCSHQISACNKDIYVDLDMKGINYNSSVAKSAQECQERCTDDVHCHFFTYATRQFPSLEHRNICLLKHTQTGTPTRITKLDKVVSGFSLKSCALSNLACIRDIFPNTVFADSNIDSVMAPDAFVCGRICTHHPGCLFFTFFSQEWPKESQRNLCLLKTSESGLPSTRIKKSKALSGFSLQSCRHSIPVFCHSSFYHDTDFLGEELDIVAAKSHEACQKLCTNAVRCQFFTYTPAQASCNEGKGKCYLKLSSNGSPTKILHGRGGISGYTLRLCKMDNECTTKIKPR
Sequence of Coagulation factor XI (P03951 388-625 limits assumed): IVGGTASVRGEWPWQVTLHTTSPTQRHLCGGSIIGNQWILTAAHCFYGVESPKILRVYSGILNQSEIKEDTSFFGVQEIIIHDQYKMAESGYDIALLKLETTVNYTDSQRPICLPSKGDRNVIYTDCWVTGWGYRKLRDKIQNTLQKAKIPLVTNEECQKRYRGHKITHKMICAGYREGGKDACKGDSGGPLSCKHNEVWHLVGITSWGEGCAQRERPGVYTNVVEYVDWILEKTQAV

Turning to `COc1ccc(N(CC(=O)NCc2ccc(Cl)cc2)S(=O)(=O)c2ccccc2[N+](=O)[O-])c(OC)c1` [N-[(4-chlorophenyl)methyl]-2-(2,4-dimethoxy-N-(2-nitrophenyl)sulfonylanilino)acetamide], the IC50 is above 50 µM.
As for `Cc1ccc(C(=O)NNC(=S)NC(=O)COc2ccccc2)cc1` [N-[[(4-methylbenzoyl)amino]carbamothioyl]-2-phenoxyacetamide], the IC50 came to 3 µM.
Molecule `COc1cc(C(=O)NC(=S)N(C)Cc2ccccc2)cc(OC)c1OC` [N-[benzyl(methyl)carbamothioyl]-3,4,5-trimethoxybenzamide] yielded an IC50 above 50 µM.
In turn, `CCCNC(=O)C1CC(c2ccc(C(F)(F)F)cc2)=NO1` (stereo not drawn) [N-propyl-3-[4-(trifluoromethyl)phenyl]-4,5-dihydro-1,2-oxazole-5-carboxamide] had an IC50 of 14.3 µM.
`O=C(Oc1ccc2c(=O)c(Cl)coc2c1)c1ccncc1` [SMR000014947] registered an IC50 of 6.2 µM.
As for `COc1ccccc1/N=C/c1nc(-c2ccccc2)oc1OC(C)=O` [SMR000039734], the figure is 7.75 µM; as for `NC[C@H](O)c1ccc(O)cc1` [SMR000058358], above 50 µM; as for `COC(=O)c1c(NC(=O)COC(=O)Cn2cnc3ccccc32)sc(C)c1C` [SMR000062436], above 50 µM.
In turn, `Cn1cccc1C(=O)Nc1nc(-c2ccccn2)cs1` [SMR000064459] had an IC50 of 21.6 µM.
In turn, `O=C(Nc1nc(-c2ccc(Cl)s2)cs1)c1cccs1` [SMR000065041] gave a 50% inhibitory concentration (IC50) of 0.364 µM.
The molecule `C=CCNc1nc(NC(C)(C)CO)nc(OC)n1` [SMR000117555] registered an IC50 above 50 µM.
Turning to `Cc1cccc(CN2CCN(CC(=O)N3CCCC3)C2=O)c1` [SMR000130591], the IC50 is above 50 µM.
Molecule `CCc1ccc(NC(=O)CCn2cccc2)cc1` [SMR000130982] showed an IC50 above 50 µM.
The result for `COc1ccc(N2C(=O)C(Cl)=C(N3CCCC(C)C3)C2=O)cc1` (stereo not drawn) [SMR000142424] reads above 50 µM; that for `C=CCn1c(Cc2cccs2)nnc1SCC(=O)NCc1ccco1` [SMR000153108], above 50 µM.
The result for `COc1cccc(C=NNC(=O)c2[nH]c(C)c(C(=O)NN=Cc3cccc(OC)c3O)c2C)c1O` [SMR000162187] reads above 50 µM; that for `CC(C)(C)C(=O)Nc1ccc(C(=O)NN=Cc2ccccc2OC(=O)c2ccccc2)cc1` [SMR000174811], above 50 µM; that for `C=CCNC(=S)N[N-][CH+]c1ccc(C)c([N+](=O)[O-])c1` [SMR000228955], above 50 µM.
As for `O=C(Nc1nc(-c2ccccc2)cs1)c1ccc(S(=O)(=O)N2CCc3ccccc32)cc1` [SMR000235796], the figure is above 50 µM; as for `Cc1cccc(OCC(O)CN2CC3(C)CC2CC(C)(C)C3)c1` (stereo not drawn) [SMR000249047], above 50 µM; as for `COc1ccc(C=Nn2c(C)cc(C)cc2=O)cc1` [SMR000269659], above 50 µM.
The molecule `Brc1cccc(CN=Nc2nnn[nH]2)c1` [SMR000279292] registered an IC50 above 50 µM.
`O=C1c2ccc(-c3ccc4c(c3)C(=O)N(CCO)C4=O)cc2C(=O)N1CCO` [SMR000282940] displayed an IC50 above 50 µM.
As for `COCCNCC(=O)Nc1nc(C)cs1` [SMR000287473], the figure is above 50 µM; as for `CCc1nnc(NC(=O)c2ccc(NC(=O)C(C)C)cc2)s1` [SMR000290444], above 50 µM.
`Cc1ccc(CN2C(=O)C(=NNC(=S)Nc3ccccc3F)c3cc(S(=O)(=O)N4CCOCC4)ccc32)cc1` [SMR000314855] returned an IC50 above 50 µM.
Molecule `O=C(c1cc(Cl)nc2ccccc12)N1CCc2ccccc2C1` [SMR000347901] returned an IC50 above 50 µM.
Molecule `O=C(Cn1[nH]c(=O)c2ccccc2c1=O)Nc1cccc(S(=O)(=O)N2CCCCCC2)c1` [SMR000369234] had an IC50 above 50 µM.
Consider `COc1ccccc1NS(=O)(=O)c1ccc(O)c(C(=O)OCC(=O)c2ccc(Cl)cc2Cl)c1` [SMR000369457], for which the half-inhibitory concentration (IC50) was above 50 µM.
The molecule `COc1ccc(NCC(=O)Nc2cc(S(=O)(=O)N3CCOCC3)ccc2N2CCOCC2)c(OC)c1` [SMR000371196] returned an IC50 of 6.52 µM.
The result for `CCOC(=O)c1sc2ncn(N=Cc3ccc(O)cc3)c(=O)c2c1C` [SMR000371630] reads above 50 µM.
`Cc1cccc(OCC(=O)NN=Cc2ccccc2C(=O)O)c1` [SMR000372421] yielded a half-maximal inhibitory concentration (IC50) above 50 µM.
For the molecule `COc1cc(C(=O)OCC(C)=O)ccc1OCc1c(C)noc1C` [SMR000377658], the IC50 was above 50 µM.
In turn, `C=C(C)CNC(=S)NN=C(C)c1cccc(NC(C)=O)c1` [SMR000384154] returned an IC50 above 50 µM.
The molecule `CC1=CC(=NNC(=S)Nc2cccnc2)CC(C)(C)C1` [SMR000385739] returned an IC50 above 50 µM.
For the molecule `CCCCCCCc1c(O)nc(SCCN(C)C)[nH]c1=O` [SMR000414668], the IC50 was found to be 14 µM.
As to `COc1cc(C2SCC(=O)N2c2c(C)n(C)n(-c3ccccc3)c2=O)ccc1O` (stereo not drawn) [SMR000414946], the IC50 was above 50 µM.
On to `O=C(O)CCCC(=O)N1N=C(c2ccccc2)CC1c1cccs1` (stereo not drawn) [SMR000414955], for which the concentration for half-maximal inhibition (IC50) was above 50 µM.
The result for `Cc1cc(/C=C2\SC(=S)N(C)C2=O)c(C)n1-c1cccc(O)c1` [SMR000415846] reads above 50 µM; that for `O=[N+]([O-])c1ccc(OCCO)c(P(=O)(c2ccccc2)c2ccccc2)c1` [SMR000420001], above 50 µM; that for `CCC1CCC2(CC1)SCC(=O)N2c1ccccc1` (stereo not drawn) [SMR000425321], above 50 µM.
`O=C1SCCC1NC(=O)C(c1ccccc1)c1ccccc1` (stereo not drawn) [SMR000425361] showed an IC50 above 50 µM.
The molecule `CCCn1cc(C(=O)OCC)c(=O)c2cc(F)c(F)cc21` [SMR000427606] had an IC50 above 50 µM.
`Cn1nnc(CC[N+](C)(C)C)n1` [SMR000427769] showed an IC50 above 50 µM.
`Cc1nn(C)c(C)c1C=C(C(=O)C(C)C)n1cncn1` [SMR000427822] showed a half-inhibitory concentration (IC50) above 50 µM.
As for `O=C1OC(Nc2ccc(F)c([N+](=O)[O-])c2)c2ccccc21` (stereo not drawn) [SMR000434389], the figure is above 50 µM.
The result for `O=C1OCC2OC(O)C(O)C(O)C2OC(=O)c2cc(O)c(O)c(O)c2-c2c(O)c(O)c3oc(=O)c4c(c(O)c(O)c5oc(=O)c2c3c54)-c2c1cc(O)c(O)c2O` (stereo not drawn) [SMR000445568] reads 6.08 µM; that for `CN1CCN(S(=O)(=O)Cc2ccc(Cl)cc2)CC1` [SMR000456888], above 50 µM.
The result for `COc1ccc(Cl)cc1NC(=O)Nc1cn(C)nc1C` [SMR000458292] reads above 50 µM.
`Cc1ccc(C(=O)NCC(=O)OC(C)C(=O)Nc2ccc(N3CCOCC3)cc2)s1` (stereo not drawn) [[1-(4-morpholin-4-ylanilino)-1-oxopropan-2-yl] 2-[(5-methylthiophene-2-carbonyl)amino]acetate]: the IC50 was above 50 µM.
With `O=C(COC(=O)c1cc(=O)c2ccccc2o1)NC1CCCCC1` [[2-(cyclohexylamino)-2-oxidanylidene-ethyl] 4-oxidanylidenechromene-2-carboxylate], the IC50 is above 50 µM.
As to `COc1ccc(C)cc1NC(=O)COC(=O)C1CCN(C(=O)c2ccc(Cl)cc2)CC1` [[2-[(2-methoxy-5-methyl-phenyl)amino]-2-oxidanylidene-ethyl] 1-(4-chlorophenyl)carbonylpiperidine-4-carboxylate], the IC50 was above 50 µM.
The result for `O=C(COC(=O)CCc1nc2ccccc2c(=O)[nH]1)Nc1ccc(Cl)cn1` [[2-[(5-chloropyridin-2-yl)amino]-2-oxoethyl] 3-(4-oxo-1H-quinazolin-2-yl)propanoate] reads above 50 µM.
